Results: patent US11608323B2 (SYNGENTA LIMITED, priority 2013, dated 2023)

Legend:
Format in all cases: in vivo
ABUTH [1] = assay: Pre-emergence herbicidal activity, glasshouse pot test; conditions: rate 1000 g/Ha, evaluated after 13 days, scale 0-5
Procedure: (§1) Seeds of a variety of test species were sown in standard soil in pots. After cultivation for one day (pre-emergence) under controlled conditions in a glasshouse (at 24/16° C., day/night; 14 hours light; 65% humidity), the plants were sprayed with an aqueous spray solution derived from the formulation of the technical active ingredient in acetone/water (50:50) solution containing 0.5% Tween 20 (polyoxyethelyene sorbitan monolaurate, CAS RN 9005-64-5). The test plants were then grown in a glasshouse under controlled conditions (at 24/16° C., day/night; 14 hours light; 65% humidity) and watered twice daily. After 13 days, the test was evaluated (5=total damage to plant; 0=no damage to plant).

AMARE [2] = assay: as above; conditions: rate 1000 g/Ha, evaluated after 13 days, scale 0-5
Procedure: as §1

ECHCG [3] = assay: as above; conditions: rate 1000 g/Ha, evaluated after 13 days, scale 0-5
Procedure: as §1

SETFA [4] = assay: as above; conditions: rate 1000 g/Ha, evaluated after 13 days, scale 0-5
Procedure: as §1

ZEAMX [5] = assay: as above; conditions: rate 1000 g/Ha, evaluated after 13 days, scale 0-5
Procedure: as §1

ABUTH [6] = assay: Post-emergence herbicidal activity, glasshouse pot test; conditions: Abutilon theophrasti; application post-emergence; rate 1000 g/Ha; evaluated after 13 days
Procedure: (§2) Seeds of a variety of test species were sown in standard soil in pots. After 8 days cultivation (post-emergence) under controlled conditions in a glasshouse (at 24/16° C., day/night; 14 hours light; 65% humidity), the plants were sprayed with an aqueous spray solution derived from the formulation of the technical active ingredient in acetone/water (50:50) solution containing 0.5% Tween 20 (polyoxyethelyene sorbitan monolaurate, CAS RN 9005-64-5). The test plants were then grown in a glasshouse under controlled conditions (at 24/16° C., day/night; 14 hours light; 65% humidity) and watered twice daily. After 13 days, the test was evaluated (5=total damage to plant; 0=no damage to plant).

AMARE [7] = assay: as above; conditions: Amaranthus retroflexus; application post-emergence; rate 1000 g/Ha; evaluated after 13 days
Procedure: as §2

ECHCG [8] = assay: as above; conditions: Echinochloa crus-galli; application post-emergence; rate 1000 g/Ha; evaluated after 13 days
Procedure: as §2

SETFA [9] = assay: as above; conditions: Setaria faberi; application post-emergence; rate 1000 g/Ha; evaluated after 13 days
Procedure: as §2

ZEAMX [10] = assay: as above; conditions: Zea mays; application post-emergence; rate 1000 g/Ha; evaluated after 13 days
Procedure: as §2

SMILES | ABUTH damage score, application pre-emergence (ABUTH [1]) | AMARE damage score, application pre-emergence (AMARE [2]) | ECHCG damage score, application pre-emergence (ECHCG [3]) | SETFA damage score, application pre-emergence (SETFA [4]) | ZEAMX damage score, application pre-emergence (ZEAMX [5]) | Post-emergence herbicidal activity ABUTH (damage score 0-5) (ABUTH [6]) | Post-emergence herbicidal activity AMARE (damage score 0-5) (AMARE [7]) | Post-emergence herbicidal activity ECHCG (damage score 0-5) (ECHCG [8]) | Post-emergence herbicidal activity SETFA (damage score 0-5) (SETFA [9]) | Post-emergence herbicidal activity ZEAMX (damage score 0-5) (ZEAMX [10])
CN1C(=O)N(c2cc(C(F)(F)F)ccn2)C(O)C1CC(F)(F)F (stereo not drawn) [Compound A68] | 0 | 0 | 0 | 0 | 0 | 0 | 0 | 0 | 0 | 0
CCOC1C(O)N(c2cc(Cl)c(C(=O)NC(C)(C)C)cn2)C(=O)N1C (stereo not drawn) [Compound A69] | 5 | 5 | 5 | 5 | 2 | 5 | 4 | 5 | 4 | 3
CON1C(=O)N(c2cc(Cl)c(C(=O)NC(C)(C)C)cn2)C(O)C1C (stereo not drawn) [Compound A70] | 5 | 5 | 5 | 5 | 3 | 5 | 5 | 5 | 5 | 5
CC1C(O)N(c2cc(Cl)c(C(=O)NC(C)(C)C)cn2)C(=O)N1C (stereo not drawn) [Compound A71] | 5 | 5 | 5 | 0 | 3 | 5 | 5 | 5 | 5 | 4
CON1C(=O)N(c2cc(C(F)(F)C(F)(F)F)ccn2)C(O)C1C (stereo not drawn) [Compound A73] | 5 | 5 | 4 | 5 | 3 | 5 | 5 | 5 | 5 | 3
CC1C(O)N(c2ccc(C(F)(F)F)cn2)C(=O)N1C (stereo not drawn) [Compound A74] | 5 | 5 | 4 | 4 | 3 | 5 | 5 | 4 | 5 | 3
O=C1N2CCOC2C(O)N1c1cc(C(F)(F)F)ccn1 (stereo not drawn) [Compound A75] | 5 | 5 | 4 | 4 | 2 | 5 | 5 | 5 | 5 | 2
COCN1C(=O)N(c2cc(C(F)(F)F)ccn2)C(O)C1C (stereo not drawn) [Compound A76] | 5 | 5 | 3 | 4 | 2 | 5 | 5 | 4 | 4 | 1
COC[C@@H]1C(O)N(c2cc(C(F)(F)F)ccn2)C(=O)N1C (stereo partly drawn) [Compound A77] | 5 | 5 | 5 | 5 | 3 | 5 | 5 | 5 | 5 | 5
COC[C@H]1C(O)N(c2cc(C(F)(F)F)ccn2)C(=O)N1C (stereo partly drawn) [Compound A78] | 5 | 5 | 4 | 3 | 1 | 5 | 5 | 5 | 3 | 0
CON1C(=O)N(c2cc(C(F)(F)F)c(C)cn2)C(O)[C@@H]1C (stereo partly drawn) [Compound A79] | 5 | 5 | 5 | 5 | 2 | 5 | 5 | 5 | 5 | 4
CON1C(=O)N(c2ccc(C(F)(F)F)cn2)C(O)C1C (stereo not drawn) [Compound A80] | 5 | 5 | 5 | 4 | 2 | 5 | 5 | 5 | 5 | 4
